Experiment [1] concerns carcinogen-treated cultured cells. The note with it: in vitro or in vivo; cited from earlier work.
For experiment [2], the system named is C3H 10T1/2 mouse fibroblast cells. As to the kind of experiment: in vitro transformation assay of C3H 10T1/2 cells with carcinogens MCA and DMBA. It is filed as cell-based.
Experiment [3] relates to mammalian cells. Put plainly: internalization of lunasin into the cell. Format: cell-based. From the text:
(§1) The lunasin polypeptide also contains a functional RGD (arg-gly-asp) motif.
Chromatin Modification and Tumor Suppression. […] (DePinho,1998; Brehm et al, 1998; Magnaghi-Jaulin, 1998; Pazin and Kadonaga, 1997; Hassig et al, 1997; Laherty et al, 1997). For instance, the retinoblastoma protein Rb is complexed with E2F (a family of transcription factors controlled by Rb) and HDAC1 (the major mammalian histone deacetylase which modulates chromatin structure) in mammalian cells. Rb represses E2F-regulated promoter by recruiting HDAC1 which deacetylates core histones causing a tighter association between DNA and nucleosomes, thus impairing the binding of transcription factors to recognition elements in DNA. The Rb/HDAC/E2F complex could be the target for transforming viruses leading to the release of suppression and a fully transformed state. […] Consequently, gene expression is more or less permanently repressed.

Experiment [4] deals with hypoacetylated chromatin. Put plainly: binding of lunasin to chromatin in cells. It is filed as cell-based.
Source text: as §1

Experiment [5] has as its system mammalian cells. As to the kind of experiment: effect on mitosis and kinetochore assembly of mammalian cells. It is filed as cell-based.
Source text: as §1

For experiment [6], the system named is cell membrane integrins. As to the kind of experiment: binding to cell membrane integrins in mammalian cell cultures. Format: cell-based. The conditions noted are these: exogenously applied; through the RGD tripeptide.
Source text: as §1

Experiment [7] concerns carcinogenesis. Put plainly: inhibition of carcinogenesis in in vitro and animal models. The conditions noted are these: comparable dosages and routes of administration; cell and animal studies. From the text:
Exemplary lunasin-del compounds include (again using N→C nomenclature convention) shown to be effective at inhibiting carcinogenesis in in vitro and animal models include:
BBI is an 8 kDa protein that is known to dimerize in solution.

As to `CC1=C(/C=C/C(C)=C/C=C/C(C)=C/C=C/C=C(C)/C=C/C=C(C)/C=C/C2=C(C)CCCC2(C)C)C(C)(C)CCC1` [b-carotene], the “effect on carcinogenesis after administration of the agent is stopped” value in experiment [1] is on record as “reversible effect”.
As for lunasin, the “concentration of exogenously applied peptide (as low as) that inhibits transformation into tumorous foci” value in experiment [2] (carcinogens MCA and DMBA, range 10 nM to 10 mM) was found to be 10 nM. The “prevention of carcinogen-induced tumor formation compared with BBIC” value in experiment [2] (equimolar amounts) is “more effective than BBIC”. The “inhibition of carcinogen-mediated transformation of fibroblast cells into tumorous foci” value in experiment [2] (exogenous application, carcinogens MCA and DMBA) is listed as “inhibits the transformation”. Further, the “internalization in the cell” value in experiment [3] is on record as “gets internalized in the cell via the RGD motif”. In addition, the binding to chromatin entry in experiment [4] (exogenously applied to mammalian cell cultures, lunasin that gets into the nucleus) is given as “sufficient to effectively bind regions of hypoacetylated chromatin”; in experiment [4] (lunasin gene transfected and expressed inside the cell), “preferentially binds to hypoacetylated chromatin”. In experiment [5] (exogenously applied, internalized lunasin, cells undergo normal mitosis), the “effect on kinetochore assembly” value is “appears not to affect kinetochore assembly”. In experiment [5] (when expressed in mammalian cells), the effect on mitosis result is recorded as “antimitotic effect”. The “binding to cell membrane integrins” value in experiment [6] is recorded as “binds to cell membrane integrins”. Also, the “efficacy when substituted for BBI” value in experiment [7] is given as “provides efficacy”.
For the compound vitamin E, the “effect on carcinogenesis after administration of the agent is stopped” value in experiment [1] is on record as “reversible effect”.

Values taken from patent US6391848B1, “Soybean protein nutraceuticals” (The Regents of the University of California, priority 1999, dated 2002).
